Results reported in PMC9898036, “VIP152 is a selective CDK9 inhibitor with pre-clinical in vitro and in vivo efficacy in chronic lymphocytic leukemia” (Leukemia, 2022).

How the values were obtained:
Type in all cases: binding
[1] = target: CDK9 (Homo sapiens, UniProt P50750); test: KINOMEscan: CDK9
Protocol: The structure and synthesis of VIP152 were recently described by Lücking et al.. (Fig. 1A); however, the selectivity of the molecule in cellular systems has yet to be explored. […] We also performed this experiment at 1000 nM, where CDK9 was inhibited at 99%. […] We found a strong concordance between our data and those of Lücking when comparing the most inhibited kinases. Potential off-target effects of VIP152 were next tested in vitro at a concentration of 10 µM for off-target activity against a broad range of receptors, transporters, ion channels, and enzymes (n = 138) using the Eurofins Diversity Panel.
Kinomescan Kinase Profiling Assay
Kinomescan Assay was performed at DiscoverRX and described in Fabian, et al. 2005, Nat.
Biotechnol. In brief, kinases were produced and subsequently tagged with DNA for qPCR detection.
Streptavidin-coated magnetic beads were bound to biotinylated kinase ligands to serve as a solid support.
VIP152 was dissolved in DMSO and tested across a 10 serial threefold dilution set and compared to a test compound and a DMSO control. Kinases which were inhibited by VIP152 would not be bound to the solid-support resulting in decreased substrate for the qPCR reaction. Kinome map was produced via TreeSpot Analysis from DiscoverRX. […]
NanoBRETTM Target Engagement Assay Protocol […]
Complete 20X NanoBRET Tracer Reagent was prepared with Tracer Dilution Buffer and dispensed at a ratio of 1:20 Reagent to cells in the tube. The cell

[2] = test system: Calcium Channel L-Type, Benzothiazepine; test: Eurofins Diversity Panel; settings: rat, Conc. 10 μM
[3] = test system: Calcium Channel L-Type Dihydropyridine; test: Eurofins Diversity Panel; settings: rat, Conc. 10 μM
[4] = target: Glucocorticoid (Homo sapiens, UniProt P04150); test: Eurofins Diversity Panel; settings: hum, Conc. 10 μM
[5] = test system: Glutamate, Kainate; test: Eurofins Diversity Panel; settings: rat, Conc. 10 μM
[6] = target: Prostanoid EP4 (Homo sapiens, UniProt P35408); test: Eurofins Diversity Panel; settings: hum, Conc. 10 μM
[7] = target: RSK2(Kin.Dom.2-C-terminal) (Homo sapiens, UniProt P51812); test: KINOMEscan: RSK2(Kin.Dom.2-C-terminal); settings: 100 nM, read-out: Percent Control
[8] = target: SBK1 (Homo sapiens, UniProt Q52WX2); test: KINOMEscan: SBK1; settings: 100 nM, read-out: Percent Control
[9] = target: SgK110 (Homo sapiens, UniProt P0C264); test: KINOMEscan: SgK110; settings: 100 nM, read-out: Percent Control
[10] = target: TAOK3 (Homo sapiens, UniProt Q9H2K8); test: KINOMEscan: TAOK3; settings: 100 nM, read-out: Percent Control
[11] = target: TRPM6 (Homo sapiens, UniProt Q9BX84); test: KINOMEscan: TRPM6; settings: 100 nM, read-out: Percent Control
[12] = target: TXK (Homo sapiens, UniProt P42681); test: KINOMEscan: TXK; settings: 100 nM, read-out: Percent Control
[13] = target: VRK2 (Homo sapiens, UniProt Q86Y07); test: KINOMEscan: VRK2; settings: 100 nM, read-out: Percent Control
[14] = target: ABL2 (Homo sapiens, UniProt P42684); test: KINOMEscan: ABL2; settings: 1000 nM, read-out: Percent Control
[15] = target: BIKE (Homo sapiens, UniProt Q9NSY1); test: KINOMEscan: BIKE; settings: 1000 nM, read-out: Percent Control
[16] = target: CDK4 (Homo sapiens, UniProt P11802); test: KINOMEscan: CDK4; settings: 1000 nM, read-out: Percent Control
[17] = target: CLK4 (Homo sapiens, UniProt Q9HAZ1); test: KINOMEscan: CLK4; settings: 1000 nM, read-out: Percent Control
[18] = target: CSK (Homo sapiens, UniProt P41240); test: KINOMEscan: CSK; settings: 1000 nM, read-out: Percent Control
[19] = target: CSNK2A1 (Homo sapiens, UniProt P68400); test: KINOMEscan: CSNK2A1; settings: 1000 nM, read-out: Percent Control
[20] = target: DRAK1 (Homo sapiens, UniProt Q9UEE5); test: KINOMEscan: DRAK1; settings: 1000 nM, read-out: Percent Control
[21] = target: ERK3 (Homo sapiens, UniProt Q16659); test: KINOMEscan: ERK3; settings: 1000 nM, read-out: Percent Control
[22] = target: ERK8 (Homo sapiens, UniProt Q8TD08); test: KINOMEscan: ERK8; settings: 1000 nM, read-out: Percent Control
[23] = target: FGFR2 (Homo sapiens, UniProt P21802); test: KINOMEscan: FGFR2; settings: 1000 nM, read-out: Percent Control
[24] = target: FRK (Homo sapiens, UniProt P42685); test: KINOMEscan: FRK; settings: 1000 nM, read-out: Percent Control
[25] = target: GRK1 (Homo sapiens, UniProt Q15835); test: KINOMEscan: GRK1; settings: 1000 nM, read-out: Percent Control
[26] = target: GRK7 (Homo sapiens, UniProt Q8WTQ7); test: KINOMEscan: GRK7; settings: 1000 nM, read-out: Percent Control
[27] = target: HCK (Homo sapiens, UniProt P08631); test: KINOMEscan: HCK; settings: 1000 nM, read-out: Percent Control
[28] = target: HIPK1 (Homo sapiens, UniProt Q86Z02); test: KINOMEscan: HIPK1; settings: 1000 nM, read-out: Percent Control
[29] = target: HPK1 (Homo sapiens, UniProt Q92918); test: KINOMEscan: HPK1; settings: 1000 nM, read-out: Percent Control
[30] = target: ITK (Homo sapiens, UniProt Q08881); test: KINOMEscan: ITK; settings: 1000 nM, read-out: Percent Control
[31] = target: KIT (Homo sapiens, UniProt P10721); test: KINOMEscan: KIT; settings: 1000 nM, read-out: Percent Control
[32] = target: LIMK1 (Homo sapiens, UniProt P53667); test: KINOMEscan: LIMK1; settings: 1000 nM, read-out: Percent Control
[33] = target: MLCK (Homo sapiens, UniProt Q32MK0); test: KINOMEscan: MLCK; settings: 1000 nM, read-out: Percent Control
[34] = target: MST3 (Homo sapiens, UniProt Q9Y6E0); test: KINOMEscan: MST3; settings: 1000 nM, read-out: Percent Control

Chain of CDK9 (P50750 whole entry): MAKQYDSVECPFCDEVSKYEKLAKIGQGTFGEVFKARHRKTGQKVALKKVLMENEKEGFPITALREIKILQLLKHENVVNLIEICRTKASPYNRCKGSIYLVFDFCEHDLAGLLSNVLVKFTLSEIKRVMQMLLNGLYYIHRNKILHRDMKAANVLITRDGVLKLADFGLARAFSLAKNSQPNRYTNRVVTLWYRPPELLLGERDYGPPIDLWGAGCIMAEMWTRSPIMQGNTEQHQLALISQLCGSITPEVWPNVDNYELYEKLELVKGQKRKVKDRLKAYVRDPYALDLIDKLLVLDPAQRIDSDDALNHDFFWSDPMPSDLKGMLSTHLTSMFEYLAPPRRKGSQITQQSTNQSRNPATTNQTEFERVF
Chain of RSK2(Kin.Dom.2-C-terminal) (P51812 398-740 limits assumed): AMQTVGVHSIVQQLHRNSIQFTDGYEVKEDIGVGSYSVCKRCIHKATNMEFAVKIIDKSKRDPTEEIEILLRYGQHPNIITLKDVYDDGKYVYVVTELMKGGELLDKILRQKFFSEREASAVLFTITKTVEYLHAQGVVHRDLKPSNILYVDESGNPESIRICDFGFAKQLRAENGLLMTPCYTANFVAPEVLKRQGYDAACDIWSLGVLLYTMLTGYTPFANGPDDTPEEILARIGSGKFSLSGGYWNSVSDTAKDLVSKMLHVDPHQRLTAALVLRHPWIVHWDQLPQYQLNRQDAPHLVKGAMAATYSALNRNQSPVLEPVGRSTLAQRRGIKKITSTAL
Chain of CSK (P41240 whole entry): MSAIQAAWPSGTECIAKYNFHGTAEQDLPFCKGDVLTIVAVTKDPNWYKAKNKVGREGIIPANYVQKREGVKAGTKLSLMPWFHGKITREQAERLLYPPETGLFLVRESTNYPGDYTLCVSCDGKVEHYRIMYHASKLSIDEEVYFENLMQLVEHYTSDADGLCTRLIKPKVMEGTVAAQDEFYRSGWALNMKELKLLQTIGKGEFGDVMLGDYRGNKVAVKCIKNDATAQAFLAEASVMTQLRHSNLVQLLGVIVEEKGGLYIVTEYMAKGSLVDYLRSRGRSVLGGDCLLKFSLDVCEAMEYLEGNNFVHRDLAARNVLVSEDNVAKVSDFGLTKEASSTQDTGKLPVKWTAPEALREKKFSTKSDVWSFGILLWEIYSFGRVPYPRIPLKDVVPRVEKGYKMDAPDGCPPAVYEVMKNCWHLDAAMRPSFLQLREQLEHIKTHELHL
Chain of TXK (P42681 whole entry): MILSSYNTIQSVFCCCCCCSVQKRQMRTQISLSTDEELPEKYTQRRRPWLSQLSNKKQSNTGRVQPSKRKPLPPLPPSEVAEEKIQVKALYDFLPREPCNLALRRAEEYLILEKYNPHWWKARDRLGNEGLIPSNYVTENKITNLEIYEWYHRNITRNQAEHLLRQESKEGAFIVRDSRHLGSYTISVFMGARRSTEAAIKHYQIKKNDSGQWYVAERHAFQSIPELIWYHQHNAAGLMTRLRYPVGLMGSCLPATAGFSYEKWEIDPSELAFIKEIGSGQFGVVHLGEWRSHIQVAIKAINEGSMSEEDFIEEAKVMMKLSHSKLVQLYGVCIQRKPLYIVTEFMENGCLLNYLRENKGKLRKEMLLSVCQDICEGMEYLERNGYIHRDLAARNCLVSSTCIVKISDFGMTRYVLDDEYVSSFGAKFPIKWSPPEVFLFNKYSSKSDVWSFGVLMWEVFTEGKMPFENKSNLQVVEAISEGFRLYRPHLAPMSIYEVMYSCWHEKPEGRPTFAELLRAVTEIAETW
Chain of LIMK1 (P53667 whole entry): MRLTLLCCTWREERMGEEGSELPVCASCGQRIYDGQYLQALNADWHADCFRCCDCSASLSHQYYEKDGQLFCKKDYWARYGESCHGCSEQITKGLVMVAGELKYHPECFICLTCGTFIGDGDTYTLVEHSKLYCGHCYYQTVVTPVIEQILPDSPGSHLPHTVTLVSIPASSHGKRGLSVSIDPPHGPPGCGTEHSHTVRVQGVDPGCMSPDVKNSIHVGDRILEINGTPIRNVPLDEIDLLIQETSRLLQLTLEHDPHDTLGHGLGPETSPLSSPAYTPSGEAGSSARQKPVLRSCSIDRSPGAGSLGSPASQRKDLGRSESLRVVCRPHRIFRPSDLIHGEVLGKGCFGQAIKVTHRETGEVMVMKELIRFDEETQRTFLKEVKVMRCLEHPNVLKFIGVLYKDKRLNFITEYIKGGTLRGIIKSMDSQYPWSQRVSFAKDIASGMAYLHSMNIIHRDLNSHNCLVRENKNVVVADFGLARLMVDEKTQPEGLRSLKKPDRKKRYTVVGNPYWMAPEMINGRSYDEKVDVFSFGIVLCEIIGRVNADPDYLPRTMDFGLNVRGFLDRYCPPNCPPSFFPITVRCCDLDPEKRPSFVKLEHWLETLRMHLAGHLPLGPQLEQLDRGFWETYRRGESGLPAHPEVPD
Chain of GRK1 (Q15835 whole entry): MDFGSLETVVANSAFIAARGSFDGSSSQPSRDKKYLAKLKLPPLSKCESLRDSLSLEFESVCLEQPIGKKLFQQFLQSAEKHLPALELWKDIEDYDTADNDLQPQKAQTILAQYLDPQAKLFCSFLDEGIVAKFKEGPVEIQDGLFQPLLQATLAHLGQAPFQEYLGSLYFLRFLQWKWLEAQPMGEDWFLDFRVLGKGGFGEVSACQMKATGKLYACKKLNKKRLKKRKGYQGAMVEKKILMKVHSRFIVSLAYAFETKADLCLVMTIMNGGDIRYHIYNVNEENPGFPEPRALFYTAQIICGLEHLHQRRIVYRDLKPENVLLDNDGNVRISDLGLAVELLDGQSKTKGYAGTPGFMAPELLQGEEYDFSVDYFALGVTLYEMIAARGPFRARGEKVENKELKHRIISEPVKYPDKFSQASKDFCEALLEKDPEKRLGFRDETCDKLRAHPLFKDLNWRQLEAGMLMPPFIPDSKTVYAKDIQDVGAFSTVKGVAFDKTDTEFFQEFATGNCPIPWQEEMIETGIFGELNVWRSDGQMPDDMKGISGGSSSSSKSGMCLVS
Chain of GRK7 (Q8WTQ7 whole entry): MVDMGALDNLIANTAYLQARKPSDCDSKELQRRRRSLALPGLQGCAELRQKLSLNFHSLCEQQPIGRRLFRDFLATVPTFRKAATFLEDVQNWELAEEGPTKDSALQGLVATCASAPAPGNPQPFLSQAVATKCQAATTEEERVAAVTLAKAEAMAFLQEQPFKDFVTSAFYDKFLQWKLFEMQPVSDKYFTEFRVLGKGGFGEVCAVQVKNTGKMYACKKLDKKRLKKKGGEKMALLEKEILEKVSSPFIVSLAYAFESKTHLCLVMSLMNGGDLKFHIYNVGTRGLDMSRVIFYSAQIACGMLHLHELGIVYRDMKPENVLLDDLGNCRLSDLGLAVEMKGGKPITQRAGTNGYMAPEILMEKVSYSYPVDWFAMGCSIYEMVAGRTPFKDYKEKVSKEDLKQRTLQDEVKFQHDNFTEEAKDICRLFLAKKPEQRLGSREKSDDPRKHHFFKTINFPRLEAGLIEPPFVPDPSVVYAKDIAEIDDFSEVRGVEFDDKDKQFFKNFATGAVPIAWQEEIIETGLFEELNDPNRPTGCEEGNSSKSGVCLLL
Chain of CLK4 (Q9HAZ1 whole entry): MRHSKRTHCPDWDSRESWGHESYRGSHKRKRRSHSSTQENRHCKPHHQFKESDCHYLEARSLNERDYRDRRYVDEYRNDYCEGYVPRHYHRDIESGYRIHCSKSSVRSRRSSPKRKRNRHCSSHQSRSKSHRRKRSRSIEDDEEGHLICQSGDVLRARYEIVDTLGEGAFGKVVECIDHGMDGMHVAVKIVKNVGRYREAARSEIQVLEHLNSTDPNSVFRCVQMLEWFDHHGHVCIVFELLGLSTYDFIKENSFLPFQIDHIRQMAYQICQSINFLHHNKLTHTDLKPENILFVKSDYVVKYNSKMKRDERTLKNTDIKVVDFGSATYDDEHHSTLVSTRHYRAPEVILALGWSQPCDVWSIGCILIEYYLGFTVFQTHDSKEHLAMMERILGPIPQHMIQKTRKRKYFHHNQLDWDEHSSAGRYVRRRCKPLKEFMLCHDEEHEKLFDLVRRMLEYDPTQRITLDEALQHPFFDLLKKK
Chain of Prostanoid EP4 (P35408 whole entry): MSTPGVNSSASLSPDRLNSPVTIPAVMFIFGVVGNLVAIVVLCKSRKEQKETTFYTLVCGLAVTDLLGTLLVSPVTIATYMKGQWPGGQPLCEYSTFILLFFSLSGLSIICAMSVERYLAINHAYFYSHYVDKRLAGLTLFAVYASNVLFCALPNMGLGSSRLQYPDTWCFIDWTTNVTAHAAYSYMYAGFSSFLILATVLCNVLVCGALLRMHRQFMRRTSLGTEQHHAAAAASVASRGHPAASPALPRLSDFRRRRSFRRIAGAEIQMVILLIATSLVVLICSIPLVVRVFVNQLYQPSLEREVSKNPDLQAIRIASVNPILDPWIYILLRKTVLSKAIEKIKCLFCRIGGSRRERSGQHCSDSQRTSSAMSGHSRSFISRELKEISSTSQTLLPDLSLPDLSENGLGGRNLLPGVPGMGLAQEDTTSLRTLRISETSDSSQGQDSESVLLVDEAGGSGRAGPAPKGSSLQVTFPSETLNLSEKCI
Chain of FRK (P42685 whole entry): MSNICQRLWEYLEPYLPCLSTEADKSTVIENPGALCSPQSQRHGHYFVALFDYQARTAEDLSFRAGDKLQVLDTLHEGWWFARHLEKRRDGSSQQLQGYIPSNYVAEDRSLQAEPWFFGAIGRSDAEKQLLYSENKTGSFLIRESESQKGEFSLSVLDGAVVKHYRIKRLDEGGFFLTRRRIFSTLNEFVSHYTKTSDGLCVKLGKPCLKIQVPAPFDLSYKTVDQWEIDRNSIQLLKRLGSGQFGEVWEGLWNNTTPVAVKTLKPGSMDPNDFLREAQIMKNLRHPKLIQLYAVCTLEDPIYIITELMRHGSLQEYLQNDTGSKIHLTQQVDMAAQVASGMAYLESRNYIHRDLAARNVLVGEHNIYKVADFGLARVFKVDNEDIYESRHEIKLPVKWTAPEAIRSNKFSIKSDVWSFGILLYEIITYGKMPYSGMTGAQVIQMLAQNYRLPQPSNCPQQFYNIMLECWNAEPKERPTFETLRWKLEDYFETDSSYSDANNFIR

With `COc1cc(F)ccc1-c1cc(Nc2cc(CS(C)(=N)=O)ccn2)ncc1F` (centres unmarked) [VIP152] the “inhibition of CDK9 greater than that of CDK7” value ([1]; 100 nM) was 7 fold, the inhibition at 0.1 µM ([1]; 100 nM, read-out: inhibition of CDK9 activity compared with control) was 95.3% and the inhibition at 1 µM ([1]; 1000 nM) was 99%. For the same molecule, the remaining binding at 0.1 µM ([1]; CDK9, 100 nM, read-out: Percent Control) was 4.7%, the remaining binding at 1 µM ([1]; CDK9, 1000 nM, read-out: Percent Control) was 1% and the “% Inh.” value [2] was 16%. For the same molecule, the “% Inh.” value [3] was 7%, the inhibition at 10 µM [4] was 30% and the “% Inh.” value [5] was 13%. It also gave an inhibition at 10 µM [6] of 24%, a remaining binding at 0.1 µM [7] of 100% and a remaining binding at 0.1 µM [8] of 95%. The remaining binding at 0.1 µM [9] was 100%, the remaining binding at 0.1 µM [10] was 88% and the remaining binding at 0.1 µM [11] was 100%. For the same molecule, the remaining binding at 0.1 µM [12] was 100%, the remaining binding at 0.1 µM [13] was 97% and the remaining binding at 1 µM [14] was 65%. The remaining binding at 1 µM [15] was 38%, the remaining binding at 1 µM [16] was 71% and the remaining binding at 1 µM [17] was 88%. It also gave a remaining binding at 1 µM [18] of 92%, a remaining binding at 1 µM [19] of 97% and a remaining binding at 1 µM [20] of 71%. For the same molecule, the remaining binding at 1 µM [21] was 84%, the remaining binding at 1 µM [22] was 58% and the remaining binding at 1 µM [23] was 70%. The remaining binding at 1 µM [24] was 47%, the remaining binding at 1 µM [25] was 88% and the remaining binding at 1 µM [26] was 87%. The remaining binding at 1 µM [27] was 82%, the remaining binding at 1 µM [28] was 54% and the remaining binding at 1 µM [29] was 85%. The remaining binding at 1 µM [30] was 100%, the remaining binding at 1 µM [31] was 83% and the remaining binding at 1 µM [32] was 92%. It also gave a remaining binding at 1 µM [33] of 100% and a remaining binding at 1 µM [34] of 94%.
